As a reminder, the Cmax is the maximum level reached in the sampled fluid or tissue.

Cmax and IC50 data for 17 molecules are collected here from ChEMBL document CHEMBL4011582, “Human drug-induced liver injury severity is highly associated with dual inhibition of liver mitochondrial function and bile salt export pump” (Hepatology, 2014).

A short description of one data set: clinical. To be noted: human.
The target of data set [1] is T1, Bile salt export pump (Homo sapiens, UniProt O95342). The data set can be described thus: Inhibition of recombinant human BSEP expressed in baculovirus infected sf21 cell plasma membrane vesicles assessed as reduction in ATP-dependent [3H]-taurocholate uptake in to vesicles after 5 mins by microbeta filtration method. It counts as ADME.
T1 sequence (O95342 whole entry): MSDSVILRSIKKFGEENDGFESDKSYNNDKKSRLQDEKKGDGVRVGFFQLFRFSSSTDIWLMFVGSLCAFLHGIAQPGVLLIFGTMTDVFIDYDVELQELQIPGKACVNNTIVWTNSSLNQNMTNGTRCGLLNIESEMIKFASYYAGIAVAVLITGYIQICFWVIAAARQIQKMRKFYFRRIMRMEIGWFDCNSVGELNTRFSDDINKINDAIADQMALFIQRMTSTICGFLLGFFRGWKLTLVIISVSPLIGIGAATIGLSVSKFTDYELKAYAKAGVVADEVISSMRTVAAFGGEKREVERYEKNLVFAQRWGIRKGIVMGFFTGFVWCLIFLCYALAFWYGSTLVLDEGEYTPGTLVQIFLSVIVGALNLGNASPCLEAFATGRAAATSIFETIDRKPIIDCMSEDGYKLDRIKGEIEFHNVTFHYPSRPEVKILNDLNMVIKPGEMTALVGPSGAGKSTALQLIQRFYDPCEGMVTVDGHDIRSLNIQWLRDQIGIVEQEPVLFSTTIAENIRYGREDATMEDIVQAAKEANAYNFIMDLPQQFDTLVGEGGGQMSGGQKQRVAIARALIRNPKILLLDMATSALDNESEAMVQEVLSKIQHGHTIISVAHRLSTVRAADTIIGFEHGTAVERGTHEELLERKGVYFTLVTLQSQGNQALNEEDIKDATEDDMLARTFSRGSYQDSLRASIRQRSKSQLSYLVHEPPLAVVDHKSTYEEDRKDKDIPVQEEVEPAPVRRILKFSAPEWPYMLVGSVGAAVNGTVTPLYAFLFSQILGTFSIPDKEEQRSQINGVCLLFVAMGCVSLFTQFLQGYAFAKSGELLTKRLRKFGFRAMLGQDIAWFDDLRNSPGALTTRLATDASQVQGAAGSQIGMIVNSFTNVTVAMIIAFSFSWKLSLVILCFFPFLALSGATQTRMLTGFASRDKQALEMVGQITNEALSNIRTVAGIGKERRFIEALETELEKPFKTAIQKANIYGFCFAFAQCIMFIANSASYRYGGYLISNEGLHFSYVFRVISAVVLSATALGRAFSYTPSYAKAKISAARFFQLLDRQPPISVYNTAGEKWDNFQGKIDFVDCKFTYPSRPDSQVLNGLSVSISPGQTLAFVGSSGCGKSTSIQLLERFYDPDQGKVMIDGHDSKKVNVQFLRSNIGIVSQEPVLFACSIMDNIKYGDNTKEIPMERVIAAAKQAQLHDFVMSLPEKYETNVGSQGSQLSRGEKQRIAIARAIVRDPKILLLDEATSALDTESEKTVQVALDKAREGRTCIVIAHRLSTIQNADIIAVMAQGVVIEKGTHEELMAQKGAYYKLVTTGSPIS
The next data set deals with Liver. The format is ADME, mitochondria, Rattus norvegicus, Sprague-Dawley.
The target in data set [2] is T1, Bile salt export pump. It counts as ADME. To be noted: read-out: IC50.
Data set [3] is described as follows: Induction of mitochondrial dysfunction in liver mitochondria (unknown origin) assessed as inhibition of mitochondrial respiration.
Data set [4] has as its target T1, Bile salt export pump. The data set is described as follows: Inhibition of BSEP (unknown origin). The format is ADME.
Data set [5] addresses T1, Bile salt export pump. The data set is described as follows: Inhibition of recombinant human BSEP expressed in baculovirus infected sf9 cell plasma membrane vesicles assessed as reduction in ATP-dependent [3H]-taurocholate uptake in to vesicles preincubated for 10 mins followed by ATP addition measured after 10 to 15 mins by TopCount method. It counts as ADME.

For `C[N+](C)(C)CC(=O)O` [BETAINE], in “clinical”, the Cmax stood at 599000 nM. For the same molecule, the IC50 at Bile salt export pump [1] is > 1000 µM; in the data set on Liver, “Non-Toxic”.

Regarding `O=C1CC2(CCCC2)CC(=O)N1CCCCN1CCN(c2ncccn2)CC1` [BUSPIRONE], the peak level in the data set “clinical” (Cmax) was 5 nM. Besides, the IC50 result was “Non-Toxic” in the data set on Liver and > 100 µM on Bile salt export pump [2].

In the case of `C[C@H](CCC(=O)O)[C@H]1CC[C@H]2[C@@H]3[C@H](O)C[C@@H]4C[C@H](O)CC[C@]4(C)[C@H]3CC[C@]12C` [CHENODIOL], the Cmax in “clinical” came to 8000 nM. Besides, the IC50 result was “Non-Toxic” with Liver and 10.6 µM at Bile salt export pump [2].

For the molecule `COCC(=O)NC/C=C/c1ccc2ncnc(Nc3ccc(Oc4ccc(C)nc4)c(C)c3)c2c1` [CP-724714], in data set [3], the IC50 is given as 45 nmol/mg.

For the molecule `CC(CCc1ccc(O)cc1)NCCc1ccc(O)c(O)c1` (stereo unspecified) [DOBUTAMINE], in the data set “clinical”, the Cmax came to 1340 nM. In addition, the values for the IC50 entry in the data set on Liver and on Bile salt export pump [2] were “Non-Toxic” and > 100 µM, respectively.

With `CCOC(=O)[C@@]1(CCCCCCOc2ccc(Cl)cc2)CO1` [ETOMOXIR], on Bile salt export pump [4], the IC50 turned out to be 11.8 µM.

`CCOC(=O)c1ncn2c1CN(C)C(=O)c1cc(F)ccc1-2` [FLUMAZENIL] showed a Cmax in “clinical” of 1120 nM. In addition, the IC50 result is “Non-Toxic” with Liver and > 100 µM on Bile salt export pump [2].

The molecule `CCC1=C(C)CN(C(=O)NCCc2ccc(S(=O)(=O)NC(=O)N[C@H]3CC[C@H](C)CC3)cc2)C1=O` [GLIMEPIRIDE] registered a Cmax in “clinical” of 1120 nM. For the same molecule, the results for the IC50 result in the data set on Liver and on Bile salt export pump [2] were “Non-Toxic” and 34 µM, respectively.

As for `CN(C)C(=O)C(CCN1CCC(O)(c2ccc(Cl)cc2)CC1)(c1ccccc1)c1ccccc1` [LOPERAMIDE], the Cmax in the data set “clinical” amounted to 8 nM. Besides, the IC50 entry in the data set with Liver was “Non-Toxic”; at Bile salt export pump [2] it was 67 µM.

Regarding `C[C@@H]1C[C@H]2[C@@H]3CCC4=CC(=O)C=C[C@]4(C)[C@@]3(Cl)[C@@H](O)C[C@]2(C)[C@@]1(O)C(=O)CCl` [MOMETASONE], the Cmax in the data set “clinical” worked out at 0.3 nM. Also, the IC50 entry is “Non-Toxic” in the data set on Liver and 9.3 µM on Bile salt export pump [2].

`CO[C@H]1/C=C/O[C@@]2(C)Oc3c(C)c(O)c4c(O)c(c(/C=N/N5CCN(C)CC5)c(O)c4c3C2=O)NC(=O)/C(C)=C\C=C\[C@H](C)[C@H](O)[C@@H](C)[C@@H](O)[C@@H](C)[C@H](OC(C)=O)[C@@H]1C` [RIFAMPIN] registered a Cmax in “clinical” of 8500 nM. Also, the IC50 entry in the data set with Liver is “Non-Toxic”; at Bile salt export pump [2], 18.7 µM.

`CO[C@H]1/C=C/O[C@@]2(C)Oc3c(C)c(O)c4c(O)c(cc(O)c4c3C2=O)NC(=O)/C(C)=C\C=C\[C@H](C)[C@H](O)[C@@H](C)[C@@H](O)[C@@H](C)[C@H](OC(C)=O)[C@@H]1C` [RIFAMYCIN]: in the data set “clinical”, the concentration peaked (Cmax) at 2780 nM. Further, the IC50 result is “Non-Toxic” in the data set on Liver and 9.5 µM on Bile salt export pump [2].

For `CN(CCOc1ccc(CC2SC(=O)NC2=O)cc1)c1ccccn1` (stereo unspecified) [ROSIGLITAZONE], the Cmax in “clinical” came to 1040 nM. For the same molecule, the IC50 at Bile salt export pump [5] was found to be 3.75 µM.

Turning to `CN[C@@H]1[C@H](O[C@H]2[C@H](O[C@H]3[C@H](O)[C@@H](O)[C@H](N=C(N)N)[C@@H](O)[C@@H]3N=C(N)N)O[C@@H](C)[C@]2(O)C=O)O[C@@H](CO)[C@H](O)[C@H]1O` [STREPTOMYCIN], in the data set “clinical”, the Cmax turned out to be 64500 nM. For the same molecule, the IC50 on Bile salt export pump [1] is > 1000 µM; in the data set on Liver, “Non-Toxic”.

Molecule `O=C1C(CC[S+]([O-])c2ccccc2)C(=O)N(c2ccccc2)N1c1ccccc1` (stereo unspecified) [SULFINPYRAZONE] registered a maximum concentration (Cmax) in “clinical” of 44200 nM. The IC50 entry in the data set on Liver is “Non-Toxic”; on Bile salt export pump [2], 11 µM.

In the case of `CC[C@H]1OC(=O)[C@H](C)C(=O)[C@H](C)[C@@H](O[C@@H]2O[C@H](C)C[C@H](N(C)C)[C@H]2O)[C@](C)(OC)C[C@@H](C)C(=O)[C@H](C)[C@H]2N(CCCCn3cnc(-c4cccnc4)c3)C(=O)O[C@]12C` [TELITHROMYCIN], the Cmax in “clinical” is 2770 nM. For the same molecule, the results for the IC50 result in the data set on Liver and on Bile salt export pump [2] were “Non-Toxic” and 30 µM, respectively.

In the case of `O=c1n(CCCN2CCN(c3cccc(Cl)c3)CC2)nc2ccccn12` [TRAZODONE], in the data set “clinical”, the concentration peaked (Cmax) at 5060 nM. Also, the IC50 entry is “Non-Toxic” in the data set on Liver and 90 µM on Bile salt export pump [2].
